The target in test [1] is T1, hNav1.7 (Homo sapiens (Human), UniProt Q15858). The experiment in a line: Electrophysiological assay (EP), voltage clamp on Syncropatch 384PE. The test is classed as cell-based. The settings on record: CHO cells expressing Nav1.7, holding potential −50 mV, 7.5 min compound incubation; read-out: EP_SP hNav1.7 EVO IC50. A general note: The patch-clamp technique gives a direct electrical read-out from membranes.

For test [2], the target named is T1, hNav1.7. The experiment in a line: Tritiated compound binding to membranes from cells heterologously expressing hNav1.7 and the β1 subunit (LBA). The note with it: competitive binding vs [3H]compound, membranes with hNav1.7 and β1 subunit; read-out: Nav1.7 LBA EVO IC50.

Results on one molecule are retold here after patent US10947251B2, “Therapeutic compounds and methods of use thereof” (GENENTECH, INC., priority 2018, dated 2021).

Broadly, the IC50 is the concentration that gives 50% inhibition.

Turning to `COc1cc(-c2cccc(C(F)(F)F)c2)c(F)cc1N1CCO[C@H]2CN(S(=O)(=O)Nc3ccon3)CC[C@@H]21` [Example 26, (4aS,8aS)-1-(2-fluoro-5-methoxy-3′-(trifluoromethyl)-[1,1′-biphenyl]-4-yl)-N-(isoxazol-3-yl)hexahydro-1H-pyrido[3,4-b][1,4]oxazine-6(7H)-sulfonamide], the IC50 turned out to be 10.6 nM on hNav1.7 [1] and 63.6 nM at hNav1.7 [2].
